From patent publication US9067967B2, “Peptides useful in the treatment and care of the skin and mucous membranes and their use in cosmetic or pharmaceutical compositions” (LIPOTEC, S.A., priority 2011, dated 2015)

What was measured:
Type in all cases: cell-based
[1] = system: human AQP-3 promoter; experiment: Modulation of the human AQP-3 promoter activity (luciferase reporter in stably transfected keratinocytes); conditions: peptide at 0.5 mg/mL, 16-24 hours; normalized to negative control (carrier = 100%)
Procedure: The modulation capacity of the promoter of the AQP-3 gene was evaluated in a cell line of keratinocytes stably transfected with the luciferase gene under the regulation of the human AQP-3 promoter. 20,000 to 30,000 cells per well were seeded and incubated for 24 hours in DMEM medium, after which the peptides of the invention were added at 0.5 mg/mL and were incubated for another 16-24 hours. The DMEM medium (carrier) was used as a negative control. The measurement of the promoter's activity was carried out using the Steady-Glo® Luciferase Assay System (PROMEGA) kit following the manufacturer's instructions. The luminescence values were read on a luminometer at 630 nm and the activity of the promoter was determined, which was normalized with regards to the values of the negative control.

[2] = system: AQP-3 gene; experiment: Relative quantification of AQP-3 mRNA by quantitative real time PCR in human epidermal keratinocytes; conditions: 0.1 mg/mL, 16-24 hours; normalized to untreated cells (carrier = 100%)
Procedure: The expression levels of the gene AQP-3 were measured by PCR in quantitative real time. A human keratinocyte cell line from adult skin was incubated at a density of 10,000 to 20,000 cells per well in EpiLife™ medium (Cascade Biologics) for 3-5 days and they were subsequently incubated with the peptides of the invention for another 16-24 hours, after which the cells were lysed and the RNA was extracted. The PCR was carried out in quantitative real time using the Taqman® Gene Expression Cells-to-CT (Applied Biosystems) kit according to the manufacturer's instructions and with the appropriate probes (TaqMan® Hs00185020_m1 probe for the AQP-3 gene and Taqman® Hs99999901_s1 probe for the eukaryotic ribosomal subunit 18S, the endogenous control of expression) and the values were normalized with regards to the basal levels of AQP-3 mRNA of the untreated cells (carrier).

[3] = system: human dermal fibroblasts (HDFa); experiment: Stimulation of collagen type I synthesis in human dermal fibroblasts (ELISA); conditions: 48 hours, carrier = 0%
Procedure: The ability of the peptides of the invention to stimulate collagen type I synthesis in human dermal fibroblasts (HDFa, Cascade Biologics) was evaluated in culture using ELISA (enzyme-linked immunosorbent assay). The fibroblasts grew in M106 supplemented with specific factors for their growth. 50,000 cells per well were seeded and incubated at 37° C., 5% CO2, with humidified air. After 24 hours the peptides of the invention were added, and were incubated for another 48 hours, after which the supernatants were collected.
96-well plates were covered with 50 μL of a standard bovine collagen type I (Sigma) or with the previously collected supernatants. The collagen was absorbed onto the wells throughout the night at 4° C. in a humidified atmosphere. The plates were washed three times and were blocked for one hour with 3% bovine serum albumin, after which they were incubated with a primary anti-collagen type I anti-body (Sigma) for 2 hours. Subsequently, the secondary antibody, goat anti-mouse IgG-HRP (Molecular Probes) was added. The plates were incubated with the […] for 30 minutes under stirring and the reaction was stopped by adding 3 M of H2SO4. The absorbance was measured at 490 nm in a plate reader (Genios, Tecan) and the concentration of collagen was determined by comparing it with a standard linear regression line.

[4] = system: human epidermal keratinocytes; experiment: Proliferation of human epidermal keratinocytes (calcein-AM fluorescence); conditions: 24 hours, carrier = 0%
Procedure: Cell proliferation was evaluated by a fluorescence-based cell viability method, in which the live cells are distinguished from the dead cells by the enzymatic conversion of calcein-AM to its fluorescent form.
Human keratinocytes were cultivated in DMEM supplemented with fetal bovine serum (FBS, Cultek) until confluence is achieved. The cells were then separated using trypsin and were seeded in 96-well plates. After 24 hours of incubation in DMEM at 37° C. in a humidified atmosphere at 5% CO2 a fresh medium was added with different concentrations of the product of the invention. Cells treated with DMEM as a negative control were used. The cells were incubated for another 24 hours under the same conditions and the medium was substituted by 100 μl of calcein-AM (Molecular Probes) at 0.4 μM diluted in phosphate buffered saline (PBS, Sigma). After 30 minutes of incubation at 37° C. the fluorescence was measured at excitation 485 nm 1 and emission 530 nm (λem) in a plate reader (Genios Tecan). The total growth percentage was calculated as T/C×100 wherein T is the fluorescence of the wells treated with the peptides of the invention and C the fluorescence of the control wells treated with DMEM.

Substance | Activity of the AQP-3 promoter (%) [1] [%] | further results
Ac-L-Tyr-L-Pro-L-Ala-Gly-Gly-L-Pro-NH2 (Ac-YPAGGP-NH2) [Ac-SEQ ID 26-NH2] | 114 | 
Ac-L-Ser-L-Val-L-Ala-L-Val-Gly-L-Pro-NH2 (Ac-SVAVGP-NH2) [Ac-SEQ ID 17-NH2] | 121 | 
Ac-L-Tyr-L-Pro-L-Ala-Gly-Gly-Gly-NH2 (Ac-YPAGGG-NH2) [Ac-SEQ ID 25-NH2] | 132 | 
Ac-L-Tyr-L-Val-L-Ala-Gly-Gly-Gly-NH2 (Ac-YVAGGG-NH2) [Ac-SEQ ID 33-NH2] | 129 | 
Ac-L-Ser-L-Pro-L-Ala-L-Val-Gly-L-Pro-NH2 (Ac-SPAVGP-NH2) [Ac-SEQ ID 49-NH2] | 116 | 
Ac-L-Ser-L-Val-L-Ala-Gly-Gly-L-His-NH2 (Ac-SVAGGH-NH2) [Ac-SEQ ID 41-NH2] | 124 | 
Ac-L-Ser-L-Val-L-Ala-Gly-Gly-L-Pro-NH2 (Ac-SVAGGP-NH2) [Ac-SEQ ID 13-NH2] | 144 | 
Ac-L-Tyr-L-Val-L-Ala-L-Glu-Gly-L-Pro-NH2 (Ac-YVAEGP-NH2) [Ac-SEQ ID 32-NH2] | 135 | 
Ac-L-Ser-L-Val-L-Ala-L-Glu-Gly-Gly-NH2 (Ac-SVAEGG-NH2) [Ac-SEQ ID 46-NH2] | 119 | 
Ac-L-Ser-L-Pro-L-Ala-L-Glu-Gly-Gly-NH2 (Ac-SPAEGG-NH2) [Ac-SEQ ID 6-NH2] | 124 | 
Ac-L-Tyr-L-Pro-L-Ala-Gly-Gly-L-Gln-NH2 (Ac-YPAGGQ-NH2) [Ac-SEQ ID 43-NH2] | 122 | 
Ac-L-Ser-L-Val-L-Ala-Gly-Gly-L-Gln-NH2 (Ac-SVAGGQ-NH2) [Ac-SEQ ID 50-NH2] | 115 | 
Ac-L-Tyr-L-Val-L-Ala-L-Glu-Gly-Gly-NH2 (Ac-YVAEGG-NH2) [Ac-SEQ ID 56-NH2] | 112 | 
Ac-L-Tyr-L-Pro-L-Ala-L-Val-Gly-L-Gln-NH2 (Ac-YPAVGQ-NH2) [Ac-SEQ ID 28-NH2] | 129 | 
Ac-L-Tyr-L-Val-L-Ala-L-Glu-Gly-L-His-NH2 (Ac-YVAEGH-NH2) [Ac-SEQ ID 44-NH2] | 120 | 
Ac-L-Ser-L-Pro-L-Ala-L-Glu-Gly-L-Gln-NH2 (Ac-SPAEGQ-NH2) [Ac-SEQ ID 5-NH2] | 121 | 
Ac-L-Ser-L-Pro-L-Ala-Gly-Gly-L-His-NH2 (Ac-SPAGGH-NH2) [Ac-SEQ ID 45-NH2] | 120 | 
Ac-L-Tyr-L-Pro-L-Ala-L-Glu-Gly-L-Pro-NH2 (Ac-YPAEGP-NH2) [Ac-SEQ ID 24-NH2] | 121 | 
Ac-L-Tyr-L-Pro-L-Ala-L-Glu-Gly-Gly-NH2 (Ac-YPAEGG-NH2) [Ac-SEQ ID 23-NH2] | 125 | 

Substance | Activity of the AQP-3 promoter (%) [1] [%] | further results
Ac-L-Tyr-L-Val-L-Ala-L-Val-Gly-Gly-NH2 (Ac-YVAVGG-NH2) [Ac-SEQ ID 36-NH2] | 120 | 
Ac-L-Ser-L-Pro-L-Ala-Gly-Gly-L-Gln-NH2 (Ac-SPAGGQ-NH2) [Ac-SEQ ID 8-NH2] | 152 | 
Ac-L-Tyr-L-Pro-L-Ala-L-Glu-Gly-L-Gln-NH2 (Ac-YPAEGQ-NH2) [Ac-SEQ ID 22-NH2] | 135 | % relative quantity AQP-3 mRNA [2]: 229%
Ac-L-Tyr-L-Val-L-Ala-Gly-Gly-L-Pro-NH2 (Ac-YVAGGP-NH2) [Ac-SEQ ID 35-NH2] | 150 | 
Ac-L-Tyr-L-Pro-L-Ala-L-Val-Gly-L-Pro-NH2 (Ac-YPAVGP-NH2) [Ac-SEQ ID 31-NH2] | 122 | 
Ac-L-Tyr-L-Pro-L-Ala-L-Val-Gly-Gly-NH2 (Ac-YPAVGG-NH2) [Ac-SEQ ID 29-NH2] | 125 | 
Ac-L-Ser-L-Pro-L-Ala-L-Val-Gly-Gly-NH2 (Ac-SPAVGG-NH2) [Ac-SEQ ID 40-NH2] | 126 | 
Ac-L-Ser-L-Val-L-Ala-L-Val-Gly-L-Gln-NH2 (Ac-SVAVGQ-NH2) [Ac-SEQ ID 15-NH2] | 129 | % relative quantity AQP-3 mRNA [2]: 162%
Ac-L-Ser-L-Val-L-Ala-L-Glu-Gly-L-Gln-NH2 (Ac-SVAEGQ-NH2) [Ac-SEQ ID 12-NH2] | 138 | 
Ac-L-Ser-L-Val-L-Ala-Gly-Gly-Gly-NH2 (Ac-SVAGGG-NH2) [Ac-SEQ ID 38-NH2] | 156 | 
Ac-L-Ser-L-Val-L-Ala-L-Val-Gly-Gly-NH2 (Ac-SVAVGG-NH2) [Ac-SEQ ID 16-NH2] | 127 | 
Ac-L-Tyr-L-Pro-L-Ala-L-Val-Gly-L-His-NH2 (Ac-YPAVGH-NH2) [Ac-SEQ ID 30-NH2] | 121 | 
Ac-L-Tyr-L-Val-L-Ala-Gly-Gly-L-His-NH2 (Ac-YVAGGH-NH2) [Ac-SEQ ID 34-NH2] | 136 | 
Ac-L-Ser-L-Pro-L-Ala-L-Val-Gly-L-Gln-NH2 (Ac-SPAVGQ-NH2) [Ac-SEQ ID 39-NH2] | 133 | 
Ac-L-Tyr-L-Val-L-Ala-Gly-Gly-L-Gln-NH2 (Ac-YVAGGQ-NH2) [Ac-SEQ ID 42-NH2] | 123 | 
Ac-L-Ser-L-Pro-L-Ala-Gly-Gly-L-Pro-NH2 (Ac-SPAGGP-NH2) [Ac-SEQ ID 10-NH2] | 135 | % relative quantity AQP-3 mRNA [2]: 200%; % Increase in collagen type I synthesis ([3]; 0.01 mg/mL): 36%; % Increase in collagen type I synthesis ([3]; 0.1 mg/mL): 58%; % Stimulation of proliferation ([4]; 0.16 mg/mL): 24%; % Stimulation of proliferation ([4]; 0.62 mg/mL): 28%; % Stimulation of proliferation ([4]; 2.50 mg/mL): 31%
Ac-L-Ser-L-Val-L-Ala-L-Glu-Gly-L-His-NH2 (Ac-SVAEGH-NH2) [Ac-SEQ ID 58-NH2] | 112 | 
Ac-L-Ser-L-Pro-L-Ala-L-Glu-Gly-L-His-NH2 (Ac-SPAEGH-NH2) [Ac-SEQ ID 48-NH2] | 117 | 
